Marks after values point to notes of the source that are not given here.
How the values were obtained:
TGF-β1 mRNA = test: Dermal fibroblast TGF-β1 mRNA levels by quantitative RT-PCR; assay type: cell-based, human
Protocol: Human dermal fibroblasts were explanted from the 4 mm punch biopsy specimens of normal skin. Fibroblasts used in the study were cultured at 37° C. in 95% air; 5% CO2 at 100% relative humidity, in phenol red-free DMEM (Gibco), 100 U/ml penicillin, […], 1 mM sodium pyruvate, 2 mM L-glutamine, non-essential amino acids and charcoal-stripped 10% FCS (Gibco, UK) (to remove endogenous steroids).
Cultured cells at passage 3-5 were seeded overnight in 24-well plates at a density of 2×10^5 cells per well in serum free media. The following morning oestrogen or progesterone (made soluble by the incorporation of the carrier cyclodextrin; Sigma, Poole), ranging from 1 pM to 1 mM doses, were added to the medium for 24 hrs. All samples were assessed in triplicate. The media was removed after the 24 hr incubation. 1 mg/ml of aprotinin, leupeptin and pepstatin A was then added to the media which was used immediately in a TGF-β assay (see below). Controls included cyclodextrin at the appropriate concentration, and serum-free medium alone.
Quantitative RT-PCR was used to determine the steady-state levels of TGF-β1 mRNA in the acute wound and in 10^5 cells from the fibroblast in vitro studies (2.1.5) Cellular RNA was isolated from specimens using the method of Chomcynski and Sacchi (Anal, Biochem, 162 p156-159 (1987)). Purity of extraction was assessed using the A260/280 ratio spectrophotometrically, which in all cases was above 1.75. […] Quantitative RT-PCR was performed as described by Tarnuzzer et al. (Biotechniques 20 p670-674 (1996)) Briefly, the reverse transcriptase reaction was carried out using 8 decreasing dilutions of template with 1 μg of authentic cellular RNA. β-actin was used as a positive control. PCR reactions were carried out on the reverse transcription reaction. Electrophoresis was then carried out on a 2% agarose gel containing […] ethidium bromide at 100 v for 1 hr using an Electro 4 tank (Hybaid, Teddington, UK) and photographed using a dual intensity transilluminator (Genetic Research instrumentation, Dunmow (UK) with a Polaroid MP 4+ camera and 665 Polaroid Black and White film, Photographic images were captured using a PC Image Software system (Foster Finley, Newcastle, UK) on a 486 DX2 Dan computer (Dan, UK) and a CCD camera (Swift, UK). The band intensities were determined by image analysis using a Macintosh computer and NIH software programme. Band intensity values were normalised based on the molecular weights of the products. The log of the ratio of band intensities within each lane was plotted against the log of the copy number of template added per reaction. Quantities of target messages were determined where the ratio of template and target band intensities were equal to 1. Copy numbers were expressed per total RNA (for wound tissue) or expressed per cell (for in vitro studies). The latter were calculated by assuming 26 pg RNA/cell.

[1] = tested on: 4 mm punch biopsy wounds of the upper inner arm; test: Topical oestrogen patch clinical trial of wound healing in elderly men and women; assay type: in vivo, human; parameters: key to Collagen Quantities: +=minimal quantities; ++=less than normal skin; +++=similar to normal skin; ++++=greater than normal skin; settings: for Collagen Quantities: oestradiol patch, DAY 7; for % Rate of re-epithelialisation / Wound area: day 7 post-wounding; for scarring, microscopically and macroscopically (FIGS. 7 and 8): scored as in 2.1.4.2
Protocol: Approval for this study was given by the local Ethics Committee. Forty health-status defined volunteers split into four groups: (i) GROUP 3A comprised ten women with mean age 76.3 yr (Sd 5.6) who received oestrogen supplements (25 μg/24 hrs of oestradiol) (ii) GROUP 3B comprised ten women with mean age 72.5 yr (Sd 7.1) who received placebo instead of oestrogen. (iii) GROUP 3C comprised ten men with mean age 69.6 yr (Sd 3.6) who received oestrogen supplements (ii) GROUP 3D comprised ten men with mean age 71.8 yr (Sd 8.9) who received placebo instead of oestrogen. After informed consent subjects from each of Groups 3A, 3B, 3C and 3D underwent two 4 mm punch biopsies from the upper inner arm (a non sun-exposed site) following local infiltration with 1 ml 1% lignocaine. Each biopsy of normal skin was bisected and one-half embedded in Optimal Cutting Temperature compound (Miles Inc. Elkhart, Ind.), frozen over liquid nitrogen, and stored at −70° C., and one-half snap-frozen in liquid nitrogen and stored at −70° C. The area for biopsy was covered by a 2×3 cm patch (placebo Groups 3B and 3D or active oestradiol 3A and 3C) through which the biopsies were made. The patch was covered by a Multisorb dry gauze dressing (Smith & Nephew) and both were removed after 24 hrs. The active patches contained sufficient oestradiol such that the wound sites were exposed to 25 μg/24 hrs of oestradiol. Five subjects from Groups 3A, 3B, 3C and 3D underwent re-excision of the wounds at day 7 post-wounding, and the other five subjects from each group at day 84 post-wounding. The left upper inner arm was cleaned with isopropyl alcohol, elliptical excisions of the wounds were made following 1% lignocaine infiltration and two sutures were used to close the gap. Each wound was bisected and processed as described above (3.1.3). 7 μm paraffin-embedded sections were strained with H&E and Masson's Trichrome. The rate of re-epithelialisation (at day 7 post-wounding), and wound sizes as determined by planimetry, were determined with image analysis using an Olympus Vanox camera and PC image capture system. Collagen quantity within the wound was determined by two observers blinded to the identity of the specimen on the following scale +=minimal quantities; ++=less than normal skin; +++=similar to normal skin; ++++=greater than normal skin. The wound stiffness at day 80 was determined using the non-disruptive Dimensional Analysis System (Das). Previous studies have correlated wound breaking strength values (ultimate pressure at failure) to wound stiffness using this system. The system applies a multiaxial load (negative pressure) to the wound and measures the deformation due to the load of two reflective targets placed at the wound edges, using a high resolution camera and video processor. Pressure was applied to a maximum of 100 mmHg and then released, Stiffness was measured between 20 and 80 mmHg.

[2] = OLD person (2A or 2B) fibroblasts, mM dose
[3] = OLD person (2A or 2B) fibroblasts, nM dose
[4] = OLD person (2A or 2B) fibroblasts, pM dose
[5] = OLD person (2A or 2B) fibroblasts, μM dose
[6] = YOUNG person (2C) fibroblasts, mM dose
[7] = YOUNG person (2C) fibroblasts, nM dose
[8] = YOUNG person (2C) fibroblasts, pM dose
[9] = YOUNG person (2C) fibroblasts, μM dose
[10] = FEMALES (3A), patch 25 μg/24 hrs of oestradiol for 24 hrs
[11] = MALES (3C), patch 25 μg/24 hrs of oestradiol for 24 hrs

| Compound | TGF-beta mRNA LEVELS (TGF-β1 mRNA; [2]) [copies/cell] | TGF-beta mRNA LEVELS (TGF-β1 mRNA; [3]) [copies/cell] | TGF-beta mRNA LEVELS (TGF-β1 mRNA; [4]) [copies/cell] | TGF-beta mRNA LEVELS (TGF-β1 mRNA; [5]) [copies/cell] | TGF-beta mRNA LEVELS (TGF-β1 mRNA; [6]) [copies/cell] | TGF-beta mRNA LEVELS (TGF-β1 mRNA; [7]) [copies/cell] | TGF-beta mRNA LEVELS (TGF-β1 mRNA; [8]) [copies/cell] | TGF-beta mRNA LEVELS (TGF-β1 mRNA; [9]) [copies/cell] | TGF-β1 mRNA levels, control versus treated fibroblasts (TGF-β1 mRNA; varying concentrations of oestrogen, fibroblasts from all females regardless of age) | Collagen Quantities ([1]; FEMALES (3A)) | % Rate of re-epithelialisation [1, 10] | Wound area [1, 10] | Collagen Quantities ([1]; MALES (3C)) | % Rate of re-epithelialisation [1, 11] | Wound area [1, 11] | Wound area ([1]; oestrogen treatment, p<0.05) | Wound stiffness (Dimensional Analysis System) ([1]; day 80 post-wounding) | rate of re-epithelialization ([1]; female (3A) and male subjects (3C) relative to placebo controls) | scarring, microscopically and macroscopically (FIGS. 7 and 8) [1] |
| --- | --- | --- | --- | --- | --- | --- | --- | --- | --- | --- | --- | --- | --- | --- | --- | --- | --- | --- | --- |
| C[C@]12CC[C@@H]3c4ccc(O)cc4CC[C@H]3[C@@H]1CC[C@@H]2O [Oestrogen] | 990 ± 325 | 1100 ± 370 | 1155 ± 215 | 1100 ± 235 | 1250 ± 188 | 1300 ± 272 | 1190 ± 300 | 1180 ± 130 | No significant differences | ++ | 74.5 (10.5)* % | 1204 (49)* | ++ | 62.5 (21.7) % | 1173 (61)* | significantly reduced | not affected | accelerated | inferior quality of wound |
| CC(=O)[C@H]1CC[C@H]2[C@@H]3CCC4=CC(=O)CC[C@]4(C)[C@H]3CC[C@]12C [Progesterone, progesterone] | 1300 ± 430 | 1000 ± 275 | 950 ± 210 | 1110 ± 290 | 1100 ± 310 | 1145 ± 206 | 1130 ± 254 | 1090 ± 280 |  |  |  |  |  |  |  |  |  |  | superior scaring |
